Data on one compound can be found in article PMC2653189 (PLoS ONE, 2009).

Assay [1] has as its system IFN-γ-mediated Stat1 phosphorylation. Description: Immunoblot of IFN-γ-mediated Stat1 phosphorylation in HepG2 cells. The settings on record: compound 300 µM 1 hour, IFN-γ 30 ng/ml 30 min. The format is cell-based, human. As to the method: The human hepatocellular carcinoma cell line (HepG2) was grown in 6-well plates under standard conditions. Cells were pretreated with compounds (0, 1, 3, 10, 30, 100 and 300 µM) for 1 hour then stimulated under optimal conditions with either interleukin-6 (IL-6; 30 ng/ml for 30 min) to activate Stat3 or interferon gamma (IFN-γ; 30 ng/ml for 30 min) to activate Stat1 [28]. Cultures were then harvested and proteins extracted using high-salt buffer, as described. Briefly, extracts were mixed with 2× sodium dodecyl sulfate (SDS) sample buffer (125 mM Tris-HCL pH 6.8; 4% SDS; 20% glycerol; 10% 2-mercaptoethanol) at a 1∶1 ratio and heated for 5 minutes at 100°C. Proteins (20 µg) were separated by 7.5% SDS-PAGE and transferred to polyvinylidene fluoride (PVDF) membrane (Millipore, Waltham, MA) and immunoblotted. Prestained molecular weight markers (BioRad; Hercules, CA) were included in each gel. Membranes were probed serially with antibody against Stat1 pY701 or Stat3 pY705 followed by antibody against Stat1 or Stat3 (Transduction labs, Lexington, KY) then antibody against β–actin (Abcam, Cambridge, MA). Membranes were stripped between antibody probing using Restore™ Western Blot Stripping Buffer (Thermo Fisher Scientific Inc., Waltham, MA) per the manufacturer's instructions. Horseradish peroxidase-conjugated goat-anti-mouse IgG was used as the secondary antibody (Invitrogen Carlsbad, CA) and the membranes were developed with enhanced chemiluminescence (ECL) detection system (Amersham Life Sciences Inc.; Arlington Heights, IL.).
Figure 2 Effect of compounds on ligand-mediated Stat3 and Stat1 phosphorylation. […] Cells were then stimulated with IL-6 (30 ng/ml) for 30 min. Protein extracts of cells were separated by SDS-PAGE, blotted and developed serially with antibodies to pStat3, total Stat3 and β-actin. Blots were stripped between each antibody probing. Band intensities were quantified by densitometry. The value of each pStat3 band was divided by its corresponding total Stat3 band intensity; the results were normalized to the DMSO-treated control value. This value was plotted as a function of the log compound concentration. The best-fitting curve was determined using 4-Parameter Logistic Model/Dose Response/XLfit 4.2, IDBS software and was used to calculate the IC50 value (Table 1). Each panel is representative of 3 or more experiments. In panel G, HepG2 cells were pretreated with DMSO alone or DMSO containing each of the compounds at a concentration of 300 µM for 60 min. Cells were then stimulated with IFN-γ (30 ng/ml) for 30 min. Protein extracts of cells were separated by SDS-PAGE and immunoblotted serially with antibodies to pStat1, total Stat1 and β-actin. Blots were stripped between each immunoblotting. The results shown are representative of 2 or more experiments.

Assay [2] concerns the target Stat3 (Homo sapiens, UniProt P40763). Description: Stat3/pY-peptide binding assay (SPR, BIAcore). The settings on record: recombinant Stat3 500 nM; immobilized EGFR Y1068 phosphododecapeptide; 25°C; read-out: SPR IC50, inhibition of Stat3 binding to pY peptide ligand. The protocol: A control (Stat3 with DMSO but without compound) was run at the beginning and the end of each cycle (40 sample injections) to ensure that the integrity of the sensor chip was maintained throughout the cycle run. The average of the two controls was normalized to 100% and used to evaluate the effect of each compound on Stat3 binding. Responses were normalized by dividing the value at 2 min by the response obtained in the absence of compounds at 2 min and multiplying by 100.

The test system of assay [3] is IL-6-mediated Stat3 nuclear translocation (GFP-Stat3α). Kind of assay: HTFM nuclear translocation assay in MEF/GFP-Stat3α cells. The format is cell-based, murine. The following applies: Mus musculus, compound 1 hour, then IL-6 200 ng/ml and IL-6sR 250 ng/ml 30 min, read-out: HTFM IC50, inhibition of IL-6-mediated Stat3 nuclear translocation. The protocol: Confocal and high-throughput fluorescence microscopy (HTFM) of MEF/GFP-Stat3α cells were performed as described. Briefly, for confocal fluorescence microscopy, cells were grown in 6-well plates containing a cover slip. For HTFM, cells were seeded into 96-well CC3 plates at a density of 5,000 cells/well using an automated plating system. Cells were cultured under standard conditions until 85–90% confluent. Cells were pre-treated with compound for 1 hour at 37°C then stimulated with IL-6 (200 ng/ml) and IL-6sR (250 ng/ml) for 30 minutes to provide optimal Stat3 activation and nuclear translocation in these cells, as described. Cells were fixed with 4% formaldehyde in PEM Buffer (80 mM Potassium PIPES, pH 6.8, 5 mM EGTA pH 7.0, 2 mM MgCl2) for 30 minutes at 4°C, quenched in 1 mg/ml of NaBH4 (Sigma) in PEM buffer and counterstained for 1 min in 4,6-diamidino-2-phenylindole (DAPI; Sigma; 1 mg/ml) in PEM buffer. Cover slips were examined by confocal fluorescent microscopy. Plates were analyzed by automated HTFM using the Cell Lab IC Image Cytometer (IC100) platform and Cytoshop Version 2.1 analysis software (Beckman Coulter). Nuclear translocation is quantified by using the fraction localized in the nucleus (FLIN) measurement. FLIN values were normalized by subtracting the FLIN for unstimulated cells then dividing this difference by the maximum difference (delta, Δ) in FLIN (FLIN in cells stimulated with IL-6/sIL-6R in the absence of compound minus FLIN of unstimulated cells). This ratio was multiplied by 100 to obtain the percentage of maximum difference in FLIN and was plotted, where indicated, as a function of the log compound concentration. The best-fitting curve and IC50 value were determined using 4-Parameter Logistic Model/Dose Response/XLfit 4.2, IDBS software.
Figure 4 Inhibition of cytoplasmic-to-nuclear translocation of Stat3 assessed by confocal and high-throughput fluorescence microscopy (HTFM). […] Coverslips were examined by confocal fluorescent microscopy using filters to detect GFP (column one), DAPI (column two) or both (merge; column three). In panel B, MEF-GFP-Stat3 cells were grown in 96-well plates with optical glass bottoms and pre-treated with the indicated compound at the indicated concentrations in quadruplicate for 1 hour then stimulated with IL-6 (200 ng/ml) and IL-6sR (250 ng/ml) for 30 minutes. Cells were fixed and the plates were examined by high-throughput microscopy to determine the fluorescence intensity in the nucleus (FLIN). The percent of maximum change (delta, Δ) in FLIN was calculated as described in the Methods and plotted as a function of the log of the compound concentration. […] Best-fit curves were determined using 4-Parameter Logistic Model/Dose Response/XLfit 4.2, IDBS software and were used to calculate the IC50 values (Table 2).

SMILES strings stand for the structures.

Stat3, sequence (P40763 whole entry, species assumed): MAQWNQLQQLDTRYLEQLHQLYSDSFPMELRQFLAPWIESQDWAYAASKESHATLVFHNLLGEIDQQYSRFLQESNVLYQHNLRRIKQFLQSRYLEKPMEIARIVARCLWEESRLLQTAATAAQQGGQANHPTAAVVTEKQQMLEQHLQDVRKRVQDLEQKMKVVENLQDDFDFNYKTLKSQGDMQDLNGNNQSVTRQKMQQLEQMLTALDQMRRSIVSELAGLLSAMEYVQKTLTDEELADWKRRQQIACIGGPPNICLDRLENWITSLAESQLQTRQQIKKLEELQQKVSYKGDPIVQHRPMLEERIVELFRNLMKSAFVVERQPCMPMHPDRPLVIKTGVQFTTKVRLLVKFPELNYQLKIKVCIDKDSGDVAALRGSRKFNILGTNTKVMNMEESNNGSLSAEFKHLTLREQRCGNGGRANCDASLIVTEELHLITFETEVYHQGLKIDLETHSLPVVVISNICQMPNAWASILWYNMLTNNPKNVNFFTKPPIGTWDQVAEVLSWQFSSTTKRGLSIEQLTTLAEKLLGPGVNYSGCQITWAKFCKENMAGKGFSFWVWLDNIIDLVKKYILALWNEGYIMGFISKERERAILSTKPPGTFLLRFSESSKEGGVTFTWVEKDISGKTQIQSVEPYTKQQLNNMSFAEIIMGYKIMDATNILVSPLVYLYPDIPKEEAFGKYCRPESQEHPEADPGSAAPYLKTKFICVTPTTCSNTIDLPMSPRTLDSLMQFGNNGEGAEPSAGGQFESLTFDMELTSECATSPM

On to `O=C(O)c1ccc(C=CC(=O)c2ccc3c(c2)OCCO3)cc1` [Cpd3, 4-[3-(2,3-dihydro-1,4-benzodioxin-6-yl)-3-oxo-1-propen-1-yl]benzoic acid], for which the “Block of IFN-γ-stimulated Stat1 phosphorylation” value in assay [1] is listed as “did not”. Besides, the IC50 turned out to be 447 µM in assay [2] and 131 µM in assay [3].
